Data: publication PMC12030426, “Translational Pharmacokinetic-Pharmacodynamic Modeling of a Novel Oral Dihydroorotate Dehydrogenase (DHODH) Inhibitor, HOSU-53 (JBZ-001)” (Pharmaceutics, 2025)
“Also recorded” adds a separate entry of the source.

Legend:
plasma DHO [1] = assay: correlation of plasma DHO exposure with efficacy, tolerability and toxicity in repeat dose studies; assay type: in vivo, rats, dogs, and tumor-bearing mice; conditions: based on preclinical experiments
Experimental: These GI toxicities are consistent with the high proliferative demand of intestinal epithelial cells, which rely on pyrimidine availability for DNA synthesis and repair. The No Observed Adverse Effect Levels (NOAELs) from the rat and dog GLP toxicity studies were then determined to be one dose level lower, which are 2.5 mg/kg (PO, QD) and 0.6 mg/kg (PO, QD), respectively. Based on repeat dose studies in rats, dogs, and tumor-bearing mice, efficacy, tolerability, and toxicity can be correlated with levels of the PD biomarker DHO in plasma.

[2] = noncompartmental PK in rats; assay type: in vivo
Description: (§1) Non-clinical PK of HOSU-53 has been studied and analyzed after single and multiple doses with noncompartmental analysis (NCA). […] F was similar between the two species, with mean values of approximately 60% and 50% in rats and dogs, respectively.

plasma DHO [3] = assay: population PD model (indirect turnover, plasma DHO), dog; assay type: in vivo
Experimental: (§2) To develop the PK/PD models, a sequential approach was tested for dog data, involving the initial construction of the PK model, fixing the PK parameters with population estimated thetas and eta variances, and then estimating the PD parameters. For mouse and rat data, a simultaneous approach was employed, estimating PK and PD parameters concurrently, assuming log-normal distribution for both. To account for the delay in PD response that results from the inhibition of DHODH, the factor controlling the dissipation of the response, various modeling approaches were employed. One approach involved using an effect compartment model with an equilibrium half-life parameter ( ke0 ) to characterize the delay,
(§3) The final PK/PD model for both species was an indirect turnover model with degradation inhibition. The parameters for the final dog and mouse PK/PD models are presented in Table 3 and Supplementary Table S3, respectively.

[4] = tested on: MOLM-13 cell line–derived xenograft; set-up: method as in PMID 38646934; conditions: combined with other front-line therapies; cited from earlier work
hERG ion channel = tested on: hERG ion channel; set-up: method as in PMID 38646934; conditions: cited from earlier work
human DHODH = human DHODH (Homo sapiens, UniProt Q02127); set-up: method as in PMID 38646934; conditions: cell-free; read-out: IC50 in cell-free human DHODH inhibition assay; cited from earlier work
Sequence of human DHODH (Q02127 whole entry): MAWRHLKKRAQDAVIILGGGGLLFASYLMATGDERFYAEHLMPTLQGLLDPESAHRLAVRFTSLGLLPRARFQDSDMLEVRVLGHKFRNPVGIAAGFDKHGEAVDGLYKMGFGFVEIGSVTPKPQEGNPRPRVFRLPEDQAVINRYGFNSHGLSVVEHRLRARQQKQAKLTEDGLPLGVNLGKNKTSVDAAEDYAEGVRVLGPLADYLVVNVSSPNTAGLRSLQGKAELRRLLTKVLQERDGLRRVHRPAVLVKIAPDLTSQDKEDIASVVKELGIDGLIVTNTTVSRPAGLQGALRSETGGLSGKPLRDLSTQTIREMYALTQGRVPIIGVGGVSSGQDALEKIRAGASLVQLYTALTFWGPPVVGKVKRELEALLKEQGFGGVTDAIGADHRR

[5] = noncompartmental PK in mice; assay type: in vivo
pKa = assay type: physicochemical; conditions: experimental data
Experimental: (§4) PBPK models were developed using PK-Sim v11.0 in rats and beagle dogs, and each was used to predict data in the other species, including mice. A base model was parameterized using lipophilicity, plasma protein binding, thermodynamic solubility, and pKa measured from in vitro studies. Half-life of HOSU-53 measured in beagle cryo-preserved hepatocytes was used along with hepatocyte incubation density within the In Vitro to In Vivo Extrapolation (IVIVE) tools in PK-Sim to estimate metabolic clearance in vivo [25]. Renal clearance of unbound plasma HOSU-53 was assumed to be driven solely by glomerular filtration rate (GFR). Various methods were used to calculate partition coefficients and cellular permeabilities in PK-Sim. PK predictions generated for each combination of calculation methods were compared to the mean observed IV profile, and the methods that best matched the observed data were selected. Ultimately, partition coefficients were calculated using the Rodgers and Rowland method, and cellular permeabilities were calculated using the charge-dependent Schmitt method. PK following oral administration of HOSU-53 was used to identify parameter values for intestinal permeability for the sodium and lysine salt forms administered in deionized (DI) water. […]

[6] = set-up: method as in PMID 38646934; conditions: cited from earlier work
PXR = tested on: PXR; set-up: method as in PMID 38646934; conditions: cited from earlier work
[7] = in vitro hepatic stability assay scaled by IVIVE, rat; assay type: in vitro ADME; conditions: scaled from in vitro hepatic stability assay
Experimental: as §4

[8] = noncompartmental PK in dogs; assay type: in vivo
Description: as §1

thermodynamic solubility = assay type: physicochemical; conditions: pH 6.5; experimental data
Experimental: as §4

[9] = 28-day GLP repeat-dose toxicity study in dogs
Experimental: The PK/PD characterization of HOSU-53 in beagle dogs was conducted across several studies. An initial single-dose PK/PD evaluation was carried out with male dogs receiving HOSU-53 (10 mg/kg, PO; 3 mg/kg, IV) in 40% HPBCD. Then, repeat-dose PK/PD over 7 days was assessed in male and female dogs with doses of 0.3, 1, and 3 mg/kg (PO, QD) in deionized water. […] Additional GLP toxicokinetic and toxicodynamic evaluations were performed, where dogs were dosed at 0.2, 0.6, and 1 mg/kg (PO, QD) for 28 days followed by a 14-day recovery period (Details in Supplementary Table S1).

[10] = 28-day GLP repeat-dose toxicity study in rats
Experimental: A series of PK and PD studies was carried out using a range of single and repeat dosing regimens in rats, exploring variations in formulation and dosing schedules. The initial experiment evaluated the PK/PD profile following a single dose of 10 mg/kg PO and 3 mg/kg IV using 40% HPBCD. Building on the single-dose results, repeat dosing was investigated at 1 (both sexes), 3 (both sexes), 6 (females), and 10 (males) mg/kg (PO, QD) and 30 (both sexes) mg/kg (PO, BIWK) regimen in 40% HPBCD formulation. To extend the findings into a disease-relevant context, repeat dosing was evaluated for 14 days in a MOLM-13 xenograft model in the Sprague Dawley Rag2−/− Il2rg−/− (SRG) male rats, where doses of 1, 3, and 10 mg/kg (PO, QD) were administered, alongside 30 mg/kg biweekly (PO, BIWK).

[11] = set-up: method as in PMID 38646934; conditions: cited from earlier work; remark: listed apart in the source
PPARγ = conditions: cited from earlier work
population PK model, dog = assay type: in vivo
Experimental: (§5) Population PK analyses were performed using nonlinear mixed-effects modeling implemented in Monolix software (Monolix Suite 2024R1, Antony, France). This approach utilizes the stochastic approximation of the expectation-maximization (SAEM) algorithm coupled with a Markov chain Monte Carlo (MCMC) method to optimize the likelihood. One- and two-compartment PK models incorporating zero- and first-order absorption with linear elimination were evaluated. Interindividual variability (IIV) in PK parameters was assumed to follow a log-normal distribution, except for bioavailability (F), which was modeled using a logit-normal distribution. An exponential model was applied, as described by the following equation: θi=θp×e^ηi where θi is the model predicted PK parameter for the ith animal, θp is the typical population PK parameter, and ηi is the random variable of normal distribution with mean zero and variance ω^2 .
(§6) Residual or random unexplained variability was evaluated using additive, proportional, and combined error models. For each model, several criteria were assessed, including the objective function value (OFV), Akaike Information Criterion (AIC), Bayesian Information Criterion (BIC), corrected Bayesian Information Criterion (BICc), and the precision of parameter estimates, expressed as residual standard errors.
During the development of the PK model for dogs, a two-compartment model was first constructed using IV data alone. […] This approach provided reasonable estimates for F and Ka, with acceptable RSE values (Table 3). […] The GOF plots for the final PK models of dog and mouse are presented in Figure 1 and Supplementary Figure S1, respectively.

plasma DHO [12] = assay: population PD model (indirect turnover, plasma DHO), mouse; assay type: in vivo
Experimental: as §2, §3

[13] = population PK model, mouse; assay type: in vivo
Experimental: as §5, §6
The final structural PK models for both mouse and dog data were two-compartment disposition models with first-order absorption and linear elimination. We ultimately chose to exclude rat data from the population modeling effort, as described below in this section. The parameters for the final dog and mouse PK models are presented in Table 3 and Supplementary Table S3, respectively. All parameters were estimated with good precision, as indicated by the %RSE of the estimates. Proportional and combined error models were selected for the mouse and dog data, respectively.

For `CCCCOc1cccc(-c2ccc(-c3cc(C(=O)O)c4cc(F)ccc4n3)cc2)c1` [HOSU-53], the “AUCtau,ss of DHO at which optimal efficacy is expected” value (plasma DHO [1]) was “around 300 µM·h”, the F ([2]; mean, NCA) was “approximately 60%” and the “dose proportionality of plasma levels” value ([2]; repeated oral dosing, higher doses, dose range 3–10 mg/kg) was “less-than-dose-proportional manner”. It also gave an IC50 (plasma DHO [3]; bootstrap point estimate) of 80 nM, a Kout (plasma DHO [3]; bootstrap point estimate) of 70 h⁻¹ and a gamma (plasma DHO [3]; bootstrap point estimate) of 1.86. The Kout (plasma DHO [3]; model estimate (RSE%)) was 52 (11.4) /h, the gamma (plasma DHO [3]; model estimate (RSE%)) was 1.9 (1.6) and the IC50 (plasma DHO [3]; plasma HOSU-53 concentration, inhibition of DHO degradation, model estimate (RSE%)) was 100 nM. For the same molecule, the survival [4] was “prolonged survival benefits”, the “hERG ion channel inhibition” value (hERG ion channel) was “does not induce PXR or inhibit the hERG ion channel” and the IC50 (human DHODH) was 0.95 nM. The “mean T1/2” value ([5]; NCA) was 30 h, the “dose proportionality of plasma levels” value ([5]; repeated oral dosing, higher doses, dose range 4–30 mg/kg) was “less-than-dose-proportional manner” and the F ([5]; single IV 3 mg/kg and oral 10 mg/kg, NCA) was 86%. The “pKa (Acid)” value (pKa) was 3.05 (Acid), the “pKa (Base)” value (pKa) was 1.19 (Base) and the Ames mutagenicity [6] was “negative”. For the same molecule, the PXR induction (PXR) was “does not induce PXR”, the “Specific Clearance” value [7] was 7.29 min⁻¹ and the F ([8]; mean, NCA) was roughly 50%. For the same molecule, the “dose proportionality of plasma levels” value ([8]; repeated oral dosing, dose range 0.3–3 mg/kg) was “dose-proportional manner”, the Solubility (thermodynamic solubility) was 18.8 μg/mL (pH 6.5) and the survival ([9]; all dogs, 28-day GLP study) was “survived until scheduled euthanasia”. The “HNSTD or STD10” value ([9]; dogs) was 0.6 mg/kg/day, the NOAEL ([9]; dogs, PO, QD, 28-day GLP) was 0.6 mg/kg and the “maximum DHO concentration with no toxicity” value ([9]; dogs, preclinical toxicokinetic data) was ~ 5850 ng/mL. The “heart rate and RR interval” value ([9]; female dogs, 1 mg/kg PO, QD, 1–2 h postdosing, weeks 1 and 4) was “lower heart rate and longer RR interval duration”, the adverse effects ([9]; male and female dogs, 1 mg/kg PO, QD, 1 mg/kg) was “decreased food consumption, lower body weights, and adverse intestinal microscopic findings related to mucosal epithelial cell loss; also recorded: decreased food consumption, lower body weights, and adverse intestinal (colon, ileum, and/or jejunum) microscopic findings related to mucosal epithelial cell loss” and the “human equivalent dose (HED)” value ([9]; scaled by body surface area from dogs (divided by 1.8)) was 0.3 mg/kg/day. For the same molecule, the adverse effects ([10]; male and female rats, 5 mg/kg PO, QD) was “decreased lymphoid cellularity in the thymus, mild-to-moderate decreases in lymphocyte counts, and lower thymus weights”, the “HNSTD or STD10” value ([10]; rats) was 5 mg/kg/day and the NOAEL ([10]; rats, PO, QD, 28-day GLP) was 2.5 mg/kg. The “maximum DHO concentration with no toxicity” value ([10]; rats, preclinical toxicokinetic data) was ~ 2870 ng/mL, the “human equivalent dose (HED)” value ([10]; scaled by body surface area from rats (divided by 6.2)) was 0.8 mg/kg/day and the micronucleus assay [11] was “negative”. For the same molecule, the “PPARγ agonism potency, fold less than potency against MOLM-13 AML cells in cell viability assays” value (PPARγ) was 1500 ×, the “F (%)” value (population PK model, dog; bootstrap point estimate) was 0.67 fraction and the Ka (population PK model, dog; bootstrap point estimate) was 1.55 h⁻¹. For the same molecule, the “F (%)” value (population PK model, dog; model estimate (RSE%)) was 0.67 (2.8) %, the Ka (population PK model, dog; model estimate (RSE%)) was 1.53 (12.6) /h and the CL/F (population PK model, dog; model estimate, fixed) was 150 Fix mL/h. The Q (population PK model, dog; model estimate, fixed) was 400 Fix mL/h, the V1 (population PK model, dog; model estimate, fixed) was 980 Fix mL and the V2 (population PK model, dog; model estimate, fixed) was 490 Fix mL. It also gave an IC50 (plasma DHO [12]; bootstrap point estimate) of 1610 nM, a Kout (plasma DHO [12]; bootstrap point estimate) of 127 h⁻¹ and a gamma (plasma DHO [12]; bootstrap point estimate) of 1.63. The Kout (plasma DHO [12]; model estimate (RSE %)) was 155 (12.7) /h, the gamma (plasma DHO [12]; model estimate (RSE %)) was 1.71 (0.1) and the IC50 (plasma DHO [12]; plasma HOSU-53 concentration, inhibition of DHO degradation, model estimate (RSE %)) was 1550 nM. The CL/F ([13]; bootstrap point estimate) was 0.07 mL/h, the “F (%)” value ([13]; bootstrap point estimate) was 54% and the Ka ([13]; bootstrap point estimate) was 1.2 h⁻¹. It also gave a Q ([13]; bootstrap point estimate) of 1.6 mL/h, a V1 ([13]; bootstrap point estimate) of 1.3 mL and a V2 ([13]; bootstrap point estimate) of 1.1 mL. The CL/F ([13]; model estimate (RSE %)) was 0.07 (5.0) mL/h, the “F (%)” value ([13]; model estimate (RSE %)) was 0.53 (0.02) % and the Ka ([13]; model estimate (RSE %)) was 1.0 (0.02) /h. For the same molecule, the Q ([13]; model estimate (RSE %)) was 1.6 (1.7) mL/h, the V1 ([13]; model estimate (RSE %)) was 1.2 (8.7) mL and the V2 ([13]; model estimate (RSE %)) was 1.2 (5.3) mL.
